Measured values: ChEMBL document CHEMBL5030514, “Discovery of Anti-TNBC Agents Targeting PTP1B: Total Synthesis, Structure-Activity Relationship, In Vitro and In Vivo Investigations of Jamunones” (J Med Chem, 2021)
Active and inactive are the calls of the source. The rule behind the calls is not given here.

Tests used:
MCF7 [1] = experiment: Antiproliferative activity against human MCF-7 cells measured by MTT assay; assay type: functional, cell-based
[2] = Selective index, ratio of IC50 for HUVEC cells to IC50 of MDA-MB-231 cells; assay type: toxicity; conditions: human, HUVEC cells versus MDA-MB-231 cells; read-out: Selectivity Index
MDA-MB-231 [3] = experiment: Antiproliferative activity against human MDA-MB-231 cells assessed as effect on cell viability at 0.56-5 uM for 24 hrs measured by MTT assay; assay type: functional, cell-based
MCF7 [4] = experiment: Antiproliferative activity against human MCF-7 cells assessed as effect on cell viability at 1.67-15 uM for 24 hrs measured by MTT assay; assay type: functional, cell-based
MDA-MB-231 [5] = experiment: Induction of mitochondrial apoptosis in human MDA-MB-231 cells assessed as membrane blebbing by Hoechst 33258 staining based fluorescence microscopic assay; assay type: functional, cell-based
MCF7 [6] = experiment: Induction of mitochondrial apoptosis in human MCF-7 cells assessed as chromatin shrinkage by Hoechst 33258 staining based fluorescence microscopic assay; assay type: functional, cell-based
MCF7 [7] = experiment: Induction of mitochondrial apoptosis in human MCF-7 cells assessed as membrane blebbing by Hoechst 33258 staining based fluorescence microscopic assay; assay type: functional, cell-based
MDA-MB-231 [8] = experiment: Induction of mitochondrial apoptosis in human MDA-MB-231 cells assessed as total apoptotic cells by fluorescein isothiocyanate -annexin V/PI double staining based flow cytometric analysis (reference value: 3.5%); assay type: functional
MDA-MB-231 [9] = experiment: Induction of mitochondrial apoptosis in human MDA-MB-231 cells assessed as accumulation of reactive oxygen species by flow cytometry; assay type: functional, cell-based
MCF7 [10] = experiment: Induction of mitochondrial apoptosis in human MCF-7 cells assessed as accumulation of reactive oxygen species by flow cytometry; assay type: functional, cell-based
MDA-MB-231 [11] = experiment: Induction of apoptosis in human MDA-MB-231 cells assessed as increase in production of cleaved caspase-9 at 0.56 to 5 uM measured after 24 hrs by Western blot analysis; assay type: functional, cell-based; conditions: dose 0.56-5 µM
MDA-MB-231 [12] = experiment: Induction of apoptosis in human MDA-MB-231 cells assessed as increase in production of cleaved caspase-3 at 0.56 to 5 uM measured after 24 hrs by Western blot analysis; assay type: functional, cell-based; conditions: dose 0.56-5 µM
MCF7 [13] = experiment: Induction of apoptosis in human MCF-7 cells assessed as increase in Bax protein expression at 1.67 to 15 uM measured after 24 hrs by Western blot analysis; assay type: functional, cell-based; conditions: dose 1.67-15 µM
MCF7 [14] = experiment: Induction of apoptosis in human MCF-7 cells assessed as increase in production of cleaved caspase-9 at 1.67 to 15 uM measured after 24 hrs by Western blot analysis; assay type: functional, cell-based; conditions: dose 1.67-15 µM
MCF7 [15] = experiment: Induction of apoptosis in human MCF-7 cells assessed as increase in production of cleaved caspase-3 at 1.67 to 15 uM measured after 24 hrs by Western blot analysis; assay type: functional, cell-based; conditions: dose 1.67-15 µM
MCF7 [16] = experiment: Induction of apoptosis in human MCF-7 cells assessed as decrease in Bcl-2 level at 1.67 to 15 uM measured after 24 hrs by Western blot analysis; assay type: functional, cell-based; conditions: dose 1.67-15 µM
MDA-MB-231 [17] = experiment: Cell cycle arrest in human MDA-MB-231 cells assessed as accumulation of cells at G0/G1 phase at 5 uM measured after 24 hrs by propidium iodide staining based flow cytometry (reference value: 44%); assay type: functional
MCF7 [18] = experiment: Cell cycle arrest in human MCF-7 cells assessed as accumulation of cells at G0/G1 phase at 15 uM measured after 24 hrs by propidium iodide staining based flow cytometry (reference value: 51.7%); assay type: functional
MDA-MB-231 [19] = experiment: Cell cycle arrest in human MDA-MB-231 cells assessed as downregulation of cyclin D1 expression by Western blot analysis; assay type: functional, cell-based
MDA-MB-231 [20] = experiment: Cell cycle arrest in human MDA-MB-231 cells assessed as downregulation of cyclin E1 expression by Western blot analysis; assay type: functional, cell-based
MDA-MB-231 [21] = experiment: Cell cycle arrest in human MDA-MB-231 cells assessed as downregulation of CDK2 expression by Western blot analysis; assay type: functional, cell-based
MDA-MB-231 [22] = experiment: Cell cycle arrest in human MDA-MB-231 cells assessed as upregulation of p21 level by Western blot analysis; assay type: functional, cell-based
MCF7 [23] = experiment: Cell cycle arrest in human MCF-7 cells assessed as downregulation of CDK4 expression by Western blot analysis; assay type: functional, cell-based
MCF7 [24] = experiment: Cell cycle arrest in human MCF-7 cells assessed as downregulation of CDK6 expression by Western blot analysis; assay type: functional, cell-based
MCF7 [25] = experiment: Cell cycle arrest in human MCF-7 cells assessed as upregulation of p21 level by Western blot analysis; assay type: functional, cell-based
MDA-MB-231 [26] = experiment: Effect on PI3K p85 expression in human MDA-MB-231 cells by Western blot analysis; assay type: functional, cell-based
MDA-MB-231 [27] = experiment: Inhibition of PI3K in human MDA-MB-231 cells assessed as Akt phosphorylation by Western blot analysis; assay type: cell-based
MDA-MB-231 [28] = experiment: Antitumour activity against human MDA-MB-231 cells xenografted in BALB/c nude mouse assessed as upregulation of Bax level by western blot; assay type: functional, cell-based
MDA-MB-231 [29] = experiment: Antitumour activity against human MDA-MB-231 cells xenografted in BALB/c nude mouse assessed as upregulation of cleaved caspase-3 level at 15 to 30 mg/kg, ip administered once for every other day for 20 days by Western blot analysis; assay type: functional, organism-based; conditions: dose 15-30 mg/kg, time 20.0 day
MDA-MB-231 [30] = experiment: Antitumour activity against human MDA-MB-231 cells xenografted in BALB/c nude mouse assessed as downregulation of cyclin D3 level at 15 to 30 mg/kg, ip administered once for every other day for 20 days by Western blot analysis; assay type: functional, organism-based; conditions: dose 15-30 mg/kg, time 20.0 day
MCF7 [31] = experiment: Effect on PI3K p85 expression in human MCF7 cells by Western blot analysis; assay type: functional, cell-based
MCF7 [32] = experiment: Inhibition of PI3K p85 phosphorylation in human MCF7 cells by Western blot analysis; assay type: cell-based
MCF7 [33] = experiment: Inhibition of PI3K in human MCF7 assessed as Akt phosphorylation by Western blot analysis
MCF7 [34] = experiment: Induction of mitochondrial apoptosis in human MCF7 cells assessed as viable cells at 15 uM measured after 24 hrs by FITC -annexin V/PI double staining based flow cytometric analysis (reference value: 93.2%); assay type: functional; conditions: read-out: Activity
MCF7 [35] = experiment: Induction of mitochondrial apoptosis in human MCF7 cells assessed as early apoptotic cells at 15 uM measured after 24 hrs by FITC -annexin V/PI double staining based flow cytometric analysis (reference value: 3.3%); assay type: functional
MCF7 [36] = experiment: Induction of mitochondrial apoptosis in human MCF7 cells assessed as late apoptotic cells at 15 uM measured after 24 hrs by FITC -annexin V/PI double staining based flow cytometric analysis (reference value: 1.1%); assay type: functional
MCF7 [37] = experiment: Induction of mitochondrial apoptosis in human MCF7 cells assessed as early apoptotic cells at 15 uM measured after 24 hrs by FITC -annexin V/PI double staining based flow cytometric analysis (reference value: 2.4%); assay type: functional
MDA-MB-231 [38] = experiment: Cell cycle arrest in human MDA-MB-231 cells assessed as accumulation of cells at S phase at 5 uM measured after 24 hrs by propidium iodide staining based flow cytometry (reference value: 27.6%); assay type: functional
MCF7 [39] = experiment: Cell cycle arrest in human MCF7 cells assessed as accumulation of cells at S phase at 15 uM measured after 24 hrs by propidium iodide staining based flow cytometry (reference value: 16.8%); assay type: functional
MCF7 [40] = experiment: Cell cycle arrest in human MCF7 cells assessed as accumulation of cells at G2/M phase at 15 uM measured after 24 hrs by propidium iodide staining based flow cytometry (reference value: 31%); assay type: functional

Q: With `CCCC/C=C/CCCCCCCCCC1(O)CC(=O)c2c(O)c(C)c(O)c(C)c2O1` (stereo not given) as the molecule, how does the IC50 (MCF7 [1]) read?
A: Its IC50 is 17.5 µM.

Q: And the selectivity ratio [2]?
A: The selectivity ratio was 6.78.

Q: And the Activity (MDA-MB-231 [3])?
A: Its Activity is “inactive”.

Q: What about the Activity (MCF7 [4]) of the same molecule?
A: The Activity was “inactive”.

Q: What about the Activity (MDA-MB-231 [5]) of the same molecule?
A: The Activity was “Active”.

Q: And the Activity (MCF7 [6])?
A: The Activity was “Active”.

Q: What about the Activity (MCF7 [7]) of the same molecule?
A: The Activity was “Active”.

Q: What about the Activity (MDA-MB-231 [8]) of the same molecule?
A: Its Activity is 11.8%.

Q: And the Activity (MDA-MB-231 [9])?
A: Its Activity is “Active”.

Q: What about the Activity (MCF7 [10]) of the same molecule?
A: Its Activity is “Active”.

Q: What about the Activity (MDA-MB-231 [11]) of the same molecule?
A: The Activity was “Dose-Dependent Effect”.

Q: What about the Activity (MDA-MB-231 [12]) of the same molecule?
A: Its Activity is “Dose-Dependent Effect”.

Q: What about the Activity (MCF7 [13]) of the same molecule?
A: The Activity was “Dose-Dependent Effect”.

Q: And the Activity (MCF7 [14])?
A: Its Activity is “Dose-Dependent Effect”.

Q: And the Activity (MCF7 [15])?
A: Its Activity is “Dose-Dependent Effect”.

Q: What about the Activity (MCF7 [16]) of the same molecule?
A: Its Activity is “Dose-Dependent Effect”.

Q: What about the Activity (MDA-MB-231 [17]) of the same molecule?
A: Its Activity is 62.4%.

Q: And the Activity (MCF7 [18])?
A: Its Activity is 66.8%.

Q: What about the Activity (MDA-MB-231 [19]) of the same molecule?
A: The Activity was “Dose-Dependent Effect”.

Q: What about the Activity (MDA-MB-231 [20]) of the same molecule?
A: The Activity was “Dose-Dependent Effect”.

Q: What about the Activity (MDA-MB-231 [21]) of the same molecule?
A: The Activity was “Dose-Dependent Effect”.

Q: What about the Activity (MDA-MB-231 [22]) of the same molecule?
A: Its Activity is “Dose-Dependent Effect”.

Q: What about the Activity (MCF7 [23]) of the same molecule?
A: Its Activity is “Dose-Dependent Effect”.

Q: What about the Activity (MCF7 [24]) of the same molecule?
A: Its Activity is “Dose-Dependent Effect”.

Q: And the Activity (MCF7 [25])?
A: The Activity was “Dose-Dependent Effect”.

Q: And the Activity (MDA-MB-231 [26])?
A: Its Activity is “inactive”.

Q: What about the inhibition (MDA-MB-231 [27]) of the same molecule?
A: Its inhibition is “Dose-Dependent Effect”.

Q: What about the Activity (MDA-MB-231 [28]) of the same molecule?
A: Its Activity is “Active”.

Q: And the Activity (MDA-MB-231 [29])?
A: The Activity was “Active”.

Q: What about the Activity (MDA-MB-231 [30]) of the same molecule?
A: Its Activity is “Active”.

Q: And the Activity (MCF7 [31])?
A: Its Activity is “inactive”.

Q: What about the inhibition (MCF7 [32]) of the same molecule?
A: Its inhibition is “Dose-Dependent Effect”.

Q: What about the inhibition (MCF7 [33]) of the same molecule?
A: The inhibition was “Dose-Dependent Effect”.

Q: And the viability at 15 µM (MCF7 [34])?
A: The viability at 15 µM was 78.7%.

Q: And the Activity (MCF7 [35])?
A: Its Activity is 4.7%.

Q: What about the Activity (MCF7 [36]) of the same molecule?
A: Its Activity is 8.9%.

Q: And the Activity (MCF7 [37])?
A: The Activity was 7.8%.

Q: What about the Activity (MDA-MB-231 [38]) of the same molecule?
A: The Activity was 21.3%.

Q: And the Activity (MCF7 [39])?
A: The Activity was 10.3%.

Q: What about the Activity (MCF7 [40]) of the same molecule?
A: Its Activity is 22.7%.
